Data taken from patent publication US20220017501A1, “MICROBIOCIDAL THIAZOLE DERIVATIVES” (SYNGENTA PARTICIPATIONS AG, priority 2018, published 2022).

Experiments:
[1] = format: physicochemical; details: for Solubility in water: pH 7.2
Procedure: Saturated solutions of test compounds were prepared in either aqueous buffer solutions (10 mM mixed phosphate, pH 7.20) or in heptane. Typically 1 mg of test compound in a 2 dram vial with 1 mL of buffer or heptane was left overnight (20 hours) on a roller shaker after an initial 20 minute period in a sonic bath. Saturated samples were then filtered through Millex-HV 0.45 micron syringe driven filters (aqueous or non-aqueous version dependent on solvent). […] Protocol variations included pre-saturation of the filters for compounds expected to have very low solubility, and centrifugation of the saturated samples for oils.

[2] = Photostability, thin-film irradiation (Atlas Suntest); format: physicochemical; details: thin film on glass, filtered xenon lamp 750 W/m2; time for first 50% loss
Procedure: Throughout the following description, LogP means logarithm of the partition coefficient, ppm means parts per million, and T50 represents the half-time of the compound under irradiation conditions.
Photostability tests were carried out by irradiation of thin-film deposits of compounds and 20 formulations on glass surfaces, using a filtered xenon lamp system (Atlas Suntest) which reproduces the spectrum and intensity of sunlight. The spectral output power of the Suntest was set to 750 W/m2, which is the typical daily maximum irradiance level at noon (UK, midsummer).
Test compounds were typically dissolved in HPLC grade methanol to give 1 g/L stock solutions. Alternatively, formulated compounds were suspended in water at the same concentration. 2 μL droplets of test solutions were spotted onto microscope cover slips in a 3D printed holder, allowed to dry then irradiated in the Suntest for varying times. […] Solutions were analysed by reverse phase HPLC, typically using a Waters UPLC system with Photodiode Array (PDA) and Waters columns (BEH C18, 100×2.1mm×1.7 μm) using mixed aqueous:acetonitrile mobile phase, acidifed with 0.2% formic acid. Peak detection was at the optimum wavelength for each candidate compound and PDA peak areas were used for quantification. […]

[3] = physchem; details: pH 7
[4] = test system: Blumeria graminis f. sp. tritici (Erysiphe graminis f. sp. tritici); test: Blumeria graminis f. sp. tritici / wheat / leaf disc preventative (powdery mildew on wheat); format: in vivo; details: foliar, wheat leaf segments, compared to untreated control
Procedure: Example B4: Blumeria Graminis f. sp. Tritici (Erysiphe Graminis f. sp. Tritici)/Wheat/Leaf Disc Preventative (Powdery Mildew on Wheat) Wheat leaf segments cv. Kanzler are placed on agar in a multiwell plate (24-well format) and sprayed with the formulated test compound diluted in water. The leaf disks are inoculated by shaking powdery mildew infected plants above the test plates 1 day after application. The inoculated leaf disks are incubated at 20° C. and 60% rh under a light regime of 24 h darkness followed by 12 h light/12 h darkness in a climate chamber and the activity of a compound is assessed as percent disease control compared to untreated when an appropriate level of disease damage appears on untreated check leaf segments (6-8 days after application). […].23.

[5] = test system: Mycosphaerella graminicola (Septoria tritici); test: Mycosphaerella graminicola (Septoria tritici) / liquid culture (Septoria blotch); format: cell-based; details: Zymoseptoria tritici, growth inhibition photometrically 4-5 days after application, read-out: control of Mycosphaerella graminicola
Procedure: (§1) Example B16: Mycosphaerella Graminicola (Septoria Tritici)/Liquid Culture (Septoria Blotch) Conidia of the fungus from cryogenic storage are directly mixed into nutrient broth (PDB potato dextrose broth). After placing a (DMSO) solution of test compound into a microtiter plate (96-well format), the nutrient broth containing the fungal spores is added. The test plates are incubated at 24° C. and the inhibition of growth is determined photometrically 4-5 days after application. […] […].23.

[6] = test system: Magnaporthe grisea (Pyricularia oryzae); test: whole plant or invertebrate; format: in vivo; details: foliar, read-out: control of Magnaporthe grisea
[7] = test system: Puccinia recondita f. sp. tritici; test: Puccinia recondita f. sp. tritici / wheat / leaf disc preventative (brown rust); format: in vivo; details: foliar, wheat leaf segments, preventative (inoculated 1 day after application), compared to untreated control, read-out: control of Puccinia recondite f. sp. tritici
Procedure: Example B12: Puccinia Recondita f. sp. Tritici/Wheat/Leaf Disc Preventative (Brown Rust) Wheat leaf segments cv. Kanzler are placed on agar in multiwell plates (24-well format) and sprayed with the formulated test compound diluted in water. The leaf disks are inoculated with a spore suspension of the fungus 1 day after application. The inoculated leaf segments are incubated at 19° C. and 75% rh under a light regime of 12 h light/12 h darkness in a climate cabinet and the activity of a compound is assessed as percent disease control compared to untreated when an appropriate level of disease damage appears in untreated check leaf segments (7-9 days after application). […] […].23.

[8] = test system: Mycosphaerella arachidis (Cercospora arachidicola); test: Mycosphaerella arachidis (Cercospora arachidicola) / liquid culture (early leaf spot); format: cell-based; details: growth inhibition photometrically 4-5 days after application, read-out: control of Mycosphaerella arachidis
Procedure: as §1, with “B8:” for “B16:”, “Arachidis (Cercospora Arachidicola)/Liquid” for “Graminicola (Septoria Tritici)/Liquid”, “(Early Leaf Spot)” for “(Septoria Blotch)”

[9] = test system: Monographella nivalis (Microdochium nivale); test: Monographella nivalis (Microdochium nivale) / liquid culture (foot rot cereals); format: cell-based; details: growth inhibition photometrically 4-5 days after application, read-out: control of Monographella nivalis
Procedure: as §1, with “B7: Monographella Nivalis (Microdochium Nivale)/Liquid” for “B16: Mycosphaerella Graminicola (Septoria Tritici)/Liquid”, “(Foot Rot Cereals)” for “(Septoria Blotch)”

[10] = test system: Glomerella lagenarium (Colletotrichum lagenarium); test: Glomerella lagenarium (Colletotrichum lagenarium) / liquid culture (anthracnose); format: cell-based; details: Colletotrichum orbiculare, growth inhibition photometrically 3-4 days after application, read-out: control of Glomerella lagenarium
Procedure: Example B3: Glomerella Lagenarium (Colletotrichum Lagenarium)/Liquid Culture (Anthracnose) Conidia of the fungus from cryogenic storage are directly mixed into nutrient broth (PDB potato dextrose broth). After placing a (DMSO) solution of test compound into a microtiter plate (96-well format), the nutrient broth containing the fungal spores is added. The test plates are incubated at 24° C. and the inhibition of growth is measured photometrically 3-4 days after application.

[11] = test system: Pyrenophora teres; test: Pyrenophora teres / barley / leaf disc preventative (net blotch); format: in vivo; details: foliar, barley leaf segments, compared to untreated control
Procedure: Example B14: Pyrenophora Teres/Barley/Leaf Disc Preventative (Net Blotch) Barley leaf segments cv. Hasso are placed on agar in a multiwell plate (24-well format) and sprayed with the formulated test compound diluted in water. The leaf […] inoculated with a spore suspension of the fungus 2 days after application. The inoculated leaf segments are incubated at 20° C. and 65% rh under a light regime of 12 h light/12 h darkness in a climate cabinet and the activity of a compound is assessed as disease control compared to untreated when an appropriate level of disease damage appears in untreated check leaf segments (5-7 days after application). […] […].23.

[12] = test system: Fusarium culmorum; format: in vivo; details: 200 ppm; wheat spikelets, preventative; compared to untreated control

SMILES	Solubility in heptane [1]	Solubility in water [1]	Photostability T50 [2]	chromatographic logP [3]	pest or weed control at 200 ppm [4]	inhibition of growth at 20 ppm [5]	pest or weed control at 200 ppm [6]	pest or weed control at 200 ppm [7]	inhibition of growth at 20 ppm [8]	inhibition of growth at 20 ppm [9]	inhibition of growth at 20 ppm [10]	melting point	pest or weed control at 200 ppm [11]	control of Fusarium culmorum [12]
Cc1sc(Nc2cc(F)nc(F)c2)nc1C(=O)NC1CCC1(C)C (stereo not drawn) [Compound E-0, 2-[(2,6-difluoro-4-pyridyl)amino]-N-(2,2-dimethylcyclobutyl)-5-methyl-thiazole-4-carboxamide, reference compound]	4.1 ppm	0.70 ppm	3.5 h	5.08	–	–	–	–	–	–	–	–	–	–
Cc1sc(N(C#N)c2cncc(F)c2)nc1C(=O)NC1CCC1(C)C (stereo not drawn) [I.b.18, 2-[cyano-(5-fluoro-3-pyridyl)amino]-N-(2,2-dimethylcyclobutyl)-5-methyl-thiazole-4-carboxamide]	–	–	–	–	≥ 80%	≥ 80%	≥ 80%	≥ 80%	≥ 80%	≥ 80%	≥ 80%	150 to 152 °C	–	–
Cc1sc(N(C#N)c2cc(F)nc(F)c2)nc1C(=O)NC1CCC1(C)C (stereo not drawn) [I.b.23, 2-[cyano-(2,6-difluoro-4-pyridyl)amino]-N-(2,2-dimethylcyclobutyl)-5-methyl-thiazole-4-carboxamide]	699 ppm	2.5 ppm	11 h	3.76	≥ 80%	≥ 80%	≥ 80%	–	≥ 80%	≥ 80%	≥ 80%	–	≥ 80%	at least 80%
